The text below walks through data of ChEMBL document CHEMBL4342482 (ACS Med Chem Lett, 2020).

Calls of active or inactive are those of the source. The calls are words filed in the database; no cut-off is given here.

For assay [1], the target named is T1, Phosphatidylinositol 3,4,5-trisphosphate 5-phosphatase 2 (Homo sapiens, UniProt O15357).
T1 sequence (O15357 whole entry): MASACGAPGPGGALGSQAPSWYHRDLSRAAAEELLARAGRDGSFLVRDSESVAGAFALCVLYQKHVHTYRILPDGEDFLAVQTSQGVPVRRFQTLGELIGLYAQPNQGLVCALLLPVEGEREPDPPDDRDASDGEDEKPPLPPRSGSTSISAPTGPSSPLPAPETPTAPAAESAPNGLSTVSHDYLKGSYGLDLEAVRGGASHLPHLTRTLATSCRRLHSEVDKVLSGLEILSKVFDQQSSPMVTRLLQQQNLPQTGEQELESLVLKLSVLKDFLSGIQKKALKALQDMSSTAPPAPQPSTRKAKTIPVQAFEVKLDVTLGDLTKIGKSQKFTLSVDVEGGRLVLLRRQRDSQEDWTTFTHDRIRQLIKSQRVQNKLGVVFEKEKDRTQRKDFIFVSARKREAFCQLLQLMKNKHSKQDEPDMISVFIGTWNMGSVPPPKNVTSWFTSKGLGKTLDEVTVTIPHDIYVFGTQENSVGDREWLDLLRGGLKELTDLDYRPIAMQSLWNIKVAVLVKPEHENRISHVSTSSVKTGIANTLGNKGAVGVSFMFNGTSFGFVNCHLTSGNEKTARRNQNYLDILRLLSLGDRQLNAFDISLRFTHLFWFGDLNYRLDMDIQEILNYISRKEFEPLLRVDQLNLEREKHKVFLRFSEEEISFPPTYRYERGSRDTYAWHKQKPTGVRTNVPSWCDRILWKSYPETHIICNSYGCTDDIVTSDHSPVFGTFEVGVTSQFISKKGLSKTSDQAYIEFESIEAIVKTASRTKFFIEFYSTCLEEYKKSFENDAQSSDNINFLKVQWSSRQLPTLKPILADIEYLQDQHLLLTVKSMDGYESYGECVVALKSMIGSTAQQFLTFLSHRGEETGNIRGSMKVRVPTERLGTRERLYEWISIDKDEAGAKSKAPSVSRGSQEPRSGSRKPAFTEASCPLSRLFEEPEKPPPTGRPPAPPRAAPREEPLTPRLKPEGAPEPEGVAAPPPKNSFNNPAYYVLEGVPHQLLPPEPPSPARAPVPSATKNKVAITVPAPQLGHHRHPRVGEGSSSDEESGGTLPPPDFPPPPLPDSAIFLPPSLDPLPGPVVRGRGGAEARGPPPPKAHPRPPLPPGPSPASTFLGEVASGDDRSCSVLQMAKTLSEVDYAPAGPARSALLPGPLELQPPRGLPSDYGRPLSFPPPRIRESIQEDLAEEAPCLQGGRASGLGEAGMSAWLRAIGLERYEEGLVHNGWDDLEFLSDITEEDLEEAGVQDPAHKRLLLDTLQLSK
The experiment in a line: Displacement of 2FAMInsP5 from recombinant human N-terminal His-tagged SHIP2 (419 to 832 residues) expressed in Escherichia coli Rosetta2 (DE3) cells by fluorescence polarization assay.

Assay [2] deals with T2, Phosphatidylinositol 3,4,5-trisphosphate 5-phosphatase 2 (Homo sapiens) (UniProt O15357).
T2 sequence (whole entry): T1 sequence (O15357 whole entry)
The experiment in a line: Binding affinity to recombinant human N-terminal His-tagged SHIP2 (419 to 832 residues) expressed in Escherichia coli Rosetta2 (DE3) cells assessed as increase in release of phosphate at 100 uM incubated for 10 mins by phosphate release assay.

For assay [3], the target named is T3, Inositol polyphosphate-5-phosphatase A (Homo sapiens, UniProt Q14642).
T3 sequence (Q14642 whole entry): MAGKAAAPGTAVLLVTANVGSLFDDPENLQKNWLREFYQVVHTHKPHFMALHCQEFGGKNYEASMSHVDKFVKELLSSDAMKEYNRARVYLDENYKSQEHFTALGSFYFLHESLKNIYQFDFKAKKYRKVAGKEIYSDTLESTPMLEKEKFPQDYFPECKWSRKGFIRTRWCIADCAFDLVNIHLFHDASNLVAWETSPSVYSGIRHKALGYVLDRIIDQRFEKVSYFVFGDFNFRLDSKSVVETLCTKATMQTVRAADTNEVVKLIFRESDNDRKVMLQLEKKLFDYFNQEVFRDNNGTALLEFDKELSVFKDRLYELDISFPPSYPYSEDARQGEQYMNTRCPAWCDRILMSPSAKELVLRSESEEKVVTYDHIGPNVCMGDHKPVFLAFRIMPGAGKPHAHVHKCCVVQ
The experiment in a line: Inhibition of recombinant human brain INPP5A expressed in Escherichia coli incubated for 10 mins by malachite green reagent based phosphate assay.

Assay [4] deals with T2, Phosphatidylinositol 3,4,5-trisphosphate 5-phosphatase 2 (Homo sapiens). The experiment in a line: Substrate activity at recombinant human N-terminal His-tagged SHIP2 (419 to 832 residues) expressed in Escherichia coli Rosetta2 (DE3) cells assessed as 3-OH-Bz(1,2,4)P3 product formation at 100 uM incubated for 2 hrs in presence of AS1949490 by fluorescence based HPLC analysis.

For assay [5] the target is unchanged. As to the kind of experiment: Substrate activity at recombinant human N-terminal His-tagged SHIP2 (419 to 832 residues) expressed in Escherichia coli Rosetta2 (DE3) cells assessed as 1,2-diOH-Bz(3,4)P2 product formation at 100 uM incubated for 2 hrs in presence of AS1949490 by fluorescence based HPLC analysis.
In assay [6] the target is T1, Phosphatidylinositol 3,4,5-trisphosphate 5-phosphatase 2. As to the kind of experiment: Displacement of Ins(1,3,4,5)P4 from recombinant human N-terminal His-tagged SHIP2 (419 to 832 residues) expressed in Escherichia coli BL21 (DE3).
In assay [7] the target is Type II inositol 1,4,5-trisphosphate 5-phosphatase (Homo sapiens, UniProt P32019). As to the kind of experiment: Inhibition of recombinant human C-terminal His-tagged INPP5B (259 to 563 residues) expressed in Escherichia coli BL21 (DE3) incubated for 5 mins using Ins(1,4,5)P3 as substrate by malachite green reagent based phosphate assay.
Sequence of Type II inositol 1,4,5-trisphosphate 5-phosphatase (P32019 whole entry, the tested form may be a part): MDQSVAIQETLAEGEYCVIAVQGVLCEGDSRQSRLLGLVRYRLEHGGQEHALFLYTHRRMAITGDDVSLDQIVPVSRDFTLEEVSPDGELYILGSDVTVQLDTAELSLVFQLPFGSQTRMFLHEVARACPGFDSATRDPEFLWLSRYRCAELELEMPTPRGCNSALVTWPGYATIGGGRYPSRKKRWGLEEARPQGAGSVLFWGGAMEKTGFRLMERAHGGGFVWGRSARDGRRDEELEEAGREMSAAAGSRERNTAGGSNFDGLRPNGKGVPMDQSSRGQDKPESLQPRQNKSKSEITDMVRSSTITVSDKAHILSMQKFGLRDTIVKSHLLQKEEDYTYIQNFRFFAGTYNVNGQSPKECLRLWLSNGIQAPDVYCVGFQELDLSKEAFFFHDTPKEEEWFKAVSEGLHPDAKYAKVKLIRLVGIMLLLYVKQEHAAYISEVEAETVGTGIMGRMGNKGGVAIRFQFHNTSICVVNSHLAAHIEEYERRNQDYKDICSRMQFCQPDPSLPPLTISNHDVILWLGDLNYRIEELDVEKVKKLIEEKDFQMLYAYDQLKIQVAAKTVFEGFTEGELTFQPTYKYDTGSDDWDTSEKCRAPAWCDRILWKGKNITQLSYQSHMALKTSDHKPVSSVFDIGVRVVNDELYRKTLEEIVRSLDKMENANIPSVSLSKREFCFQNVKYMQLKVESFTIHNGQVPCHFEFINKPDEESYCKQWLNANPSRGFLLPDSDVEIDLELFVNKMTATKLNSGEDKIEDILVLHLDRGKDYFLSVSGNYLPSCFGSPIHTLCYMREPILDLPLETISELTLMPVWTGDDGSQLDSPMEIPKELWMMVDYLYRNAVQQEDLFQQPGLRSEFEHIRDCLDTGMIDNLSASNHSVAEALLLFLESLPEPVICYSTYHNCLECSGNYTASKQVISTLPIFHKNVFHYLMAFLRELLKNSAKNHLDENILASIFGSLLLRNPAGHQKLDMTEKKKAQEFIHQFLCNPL
For assay [8], the target named is T2, Phosphatidylinositol 3,4,5-trisphosphate 5-phosphatase 2 (Homo sapiens). As to the kind of experiment: Substrate activity at recombinant human N-terminal His-tagged SHIP2 (419 to 832 residues) expressed in Escherichia coli Rosetta2 (DE3) cells assessed as 5-OH-Bz(1,2,4)P3 product formation at 100 uM incubated for 12 hrs by fluorescence based HPLC analysis.
Assay [9] has the same target. The experiment in a line: Substrate activity at recombinant human N-terminal His-tagged SHIP2 (419 to 832 residues) expressed in Escherichia coli Rosetta2 (DE3) cells assessed as 5-OH-Bz(1,2,4)P3 product formation at 100 uM incubated for 2 hrs with 100 nM to 1 mM of SHIP2 by fluorescence based HPLC analysis.
The target is the same in assay [10]. As to the kind of experiment: Substrate activity at recombinant human N-terminal His-tagged SHIP2 (419 to 832 residues) expressed in Escherichia coli Rosetta2 (DE3) cells assessed as 5-OH-Bz(1,2,4)P3 product formation at 100 uM measured upto 4 hrs by fluorescence based HPLC analysis.
The target is the same in assay [11]. As to the kind of experiment: Substrate activity at recombinant human N-terminal His-tagged SHIP2 (419 to 832 residues) expressed in Escherichia coli Rosetta2 (DE3) cells assessed as 5-OH-Bz(1,2,4)P3 product formation at 100 uM incubated for 2 hrs by fluorescence based HPLC analysis.
Assay [12] shares this target. The experiment in a line: Substrate activity at recombinant human N-terminal His-tagged SHIP2 (419 to 832 residues) expressed in Escherichia coli Rosetta2 (DE3) cells assessed as 5-OH-Bz(1,2,4)P3 product formation at 100 uM incubated for 2 hrs in presence of INS(1,3,4,5)P4 by fluorescence based HPLC analysis.
For assay [13] the target is unchanged. The experiment in a line: Substrate activity at recombinant human N-terminal His-tagged SHIP2 (419 to 832 residues) expressed in Escherichia coli Rosetta2 (DE3) cells assessed as 5-OH-Bz(1,2,4)P3 product formation at 100 uM incubated for 2 hrs in presence of AS1949490 by fluorescence based HPLC analysis.
Assay [14] has the same target. The experiment in a line: Substrate activity at recombinant human N-terminal His-tagged SHIP2 (419 to 832 residues) expressed in Escherichia coli Rosetta2 (DE3) cells assessed as 1,3-Di-OH-Bz(2,4)P2 product formation at 100 uM incubated for 2 hrs in presence of AS1949490 by fluorescence based HPLC analysis.

With `O=P(O)(O)Oc1ccc(OP(=O)(O)O)c(OP(=O)(O)O)c1`, the IC50 (in general, the concentration that inhibits the measured activity by half) in [1] was determined as 7.02 µM; in assay [3], 14 µM. For the same molecule, in assay [2], the result was Active.

In the case of `O=P(O)(O)Oc1cc(OP(=O)(O)O)cc(OP(=O)(O)O)c1`, the results for the IC50 in assay [1] and in assay [3] were 11.3 µM and 16 µM, respectively. The result in assay [2] was Active.

As for `O=P(O)(O)Oc1ccc(OP(=O)(O)O)c(OP(=O)(O)O)c1OP(=O)(O)O`, the IC50 turned out to be 2.78 µM in [1] and 98 µM in [3]. The outcome in [2] and in [5] was Active. In assay [4], the result was inactive.

With `O=P(O)(O)Oc1cccc(OP(=O)(O)O)c1OP(=O)(O)O`, the IC50 in assay [1] is 14.2 µM; in assay [6], greater than 1000 µM; in assay [7] it was 33.5 µM; in assay [3], 86 µM. Besides, the result in assay [2] was Active.

With `O=P(O)(O)Oc1cc(OP(=O)(O)O)c(OP(=O)(O)O)cc1OP(=O)(O)O`, the values for the IC50 in [1] and in [3] were 1.02 µM and 4 µM, respectively. In addition, the result in assay [2], in assay [8], in [9], in assay [10], in [11] and in [12] was Active. Besides, in assay [13], the result was inactive.

`O=P(O)(O)Oc1cc(OP(=O)(O)O)c(OP(=O)(O)O)c(OP(=O)(O)O)c1`: the results for the IC50 in assay [1] and in assay [3] were 1.01 µM and 78 µM, respectively. Besides, the result in assay [2] was Active.

With `O=P(O)(O)Oc1ccc(OP(=O)(O)O)c(OP(=O)(O)O)c1O`, the result in assay [5] was Active. Further, in [14], the result was inactive.
